Where “and” joins values, the source holds several entries; their conditions need not be identical. Equal entries are not always repeated. No end group written: not given here.
How the values were obtained:
[1] = system: PASMC; experiment: cAMP measurement in PASMC (cyclic AMP ELISA); format: cell-based; settings: for cAMP +/− SD: 20 min; for cyclic AMP content of PASMC, effect in words: analogues compared with VIP
Procedure: Effects of VIP and the peptides according to the invention are mediated by specific G-protein coupled receptors. Three distinct receptor subtypes, with differing affinity for the peptides, have been cloned and characterized as receptors 1 and 2 (VPAC1 and VPAC2) and pituitary adenylate cyclase activating polypeptide receptor (PAC1). The secondary messenger is cyclic adenosine mono phosphate (CAMP). […] Cells derived from pulmonary artery (PASMC) were seeded in 24 well plates and cultured in DMEM containing 10% fetal calf serum (Gibco lifesciences, Karlsruhe), Penicillin (Gibco lifesciences, Karlsruhe, 100 U/ml) Streptomycin (Gibco lifesciences, Karlsruhe, 100 U/ml) to confluency. […] The incubation is stopped by rinsing cells with PBS and immediate lysis of cells with HCl (0.1N) containing 3-isobutyl 1-methyl xanthine (500 μM) to block further hydrolysis of cAMP. Lysed cells were centrifuged and the supernatants assayed for cAMP using an commercially available cyclic AMP ELISA (Assay Designs, Inc., Michigan, distribution by Bio Trend, Köln).

[2] = system: COPD patients; experiment: Phase II double-blind, randomized, placebo-controlled clinical trial of inhaled VIP in COPD; settings: VIP (n = 15)
Procedure: Chronic obstructive pulmonary disease (COPD) is characterised by progressive airflow limitation associated with chronic inflammation. […] The efficacy and safety of VIP in patients was assessed with moderate to severe COPD.
The present double-blind, randomized, placebo-controlled study was undertaken in an outpatient setting. COPD patients (n=34) were randomly assigned VIP 50 μg (n=17), or placebo (n=17), given per inhalation, 4 times daily for 12 weeks. VIP serum concentration was measured in all patients. Primary outcomes were health-related quality of life and exercise capacity. Secondary outcomes included the lung function parameters and COPD exacerbations.

[3] = system: monocytes after LPS stimulation; experiment: Nitrite (NO) production by monocytes/macrophages after LPS stimulation; format: cell-based, human; settings: for Nitrit +/− SD: LPS 100 nM + peptide 100 nM, 24 hours, no LPS 48, LPS alone 75; for anti-inflammatory response (NO production) on simultaneous incubation with LPS: after 24 hours, analogues compared with VIP
Procedure: Peripheral blood mononuclear cells were isolated from whole venous blood from 12 stable COPD patients and 12 healthy probands by Ficoll density gradient centrifugation. Monocytes were differentiated in RPMI-1640 medium supplemented with 5% FCS, antibiotics and 10^−8 M 1,25-dihydroxycholecalciferol (Sigma) in a humidified atmosphere with 5% CO2 at 37° C.
For infection simulation, macrophage stimulation and experimental in vivo treatment the differentiated cells were incubated either with LPS, with LPS and SEQ ID No.:1 (VIP) or SEQ ID No.:2 (A-15) or SEQ ID No.:3 (A-18), or with medium alone for control.
To test the hypothesis whether or not the macrophages utilize the VIP-signaling pathway to modulate and limit the immune response, the inflammation reaction in vitro was stimulated and NO (produced by iNOS) production by the cells was measured under inflammation and under in vitro therapy with VIP and the peptides according to the invention (SEQ ID Nos 2 and 3). NOS increased dramatically by LPS after 24 hours. […] This anti-inflammatory response was better by both VIP-analogues according to SEQ ID Nos. 2 and 3.

Molecule | Nitrit +/− SD [3] | anti-inflammatory response (NO production) on simultaneous incubation with LPS [3] | cyclic AMP content of PASMC, effect in words [1] | cAMP +/− SD ([1]; peptide 1 nM + IBMX 500 μM) | cAMP +/− SD ([1]; peptide 1 nM, without IBMX) | cAMP +/− SD ([1]; peptide 10 nM + IBMX 500 μM) | cAMP +/− SD ([1]; peptide 10 nM, without IBMX) | cAMP +/− SD ([1]; peptide 100 nM + IBMX 500 μM) | cAMP +/− SD ([1]; peptide 100 nM, without IBMX) | also measured
C=C[C@@]1(C)CC(=O)[C@]2(O)[C@@]3(C)[C@@H](O)CCC(C)(C)[C@@H]3[C@H](O)[C@H](OC(C)=O)[C@@]2(C)O1 [Forskolin, reference compound] |  |  |  |  |  |  |  |  |  | cAMP +/− SD ([1]; Forskolin 10 μM + IBMX 500 μM): 41.10 pmol/mL and 47.81 pmol/mL and 58.00 pmol/mL
CC(C)Cn1c(=O)n(C)c(=O)c2[nH]cnc21 [IBMX, 3-isobutyl 1-methyl xanthine, reference compound] |  |  |  |  |  |  |  |  |  | cAMP +/− SD ([1]; IBMX 500 μM alone): 16.37 pmol/mL and 17.16 pmol/mL and 15.91 pmol/mL
CC[C@H](C)[C@H](NC(=O)[C@H](CO)NC(=O)[C@H](CC(N)=O)NC(=O)[C@H](CC(C)C)NC(=O)[C@H](Cc1ccc(O)cc1)NC(=O)[C@H](CCCCN)NC(=O)[C@H](CCCCN)NC(=O)[C@@H](NC(=O)[C@H](C)NC(=O)[C@H](CCSC)NC(=O)[C@H](CCC(N)=O)NC(=O)[C@H](CCCCN)NC(=O)[C@H](CCCN=C(N)N)NC(=O)[C@H](CC(C)C)NC(=O)[C@H](CCCN=C(N)N)NC(=O)[C@@H](NC(=O)[C@H](Cc1ccc(O)cc1)NC(=O)[C@H](CC(N)=O)NC(=O)[C@H](CC(=O)O)NC(=O)[C@@H](NC(=O)[C@H](Cc1ccccc1)NC(=O)[C@@H](NC(=O)[C@H](C)NC(=O)[C@H](CC(=O)O)NC(=O)[C@H](CO)NC(=O)[C@@H](N)Cc1c[nH]cn1)C(C)C)[C@@H](C)O)[C@@H](C)O)C(C)C)C(=O)N[C@@H](CC(C)C)C(=O)N[C@@H](CC(N)=O)C(N)=O [VIP] |  |  |  |  |  |  |  |  |  | Adverse events: COPD exacerbation, number [2]: 8; Adverse events: COPD exacerbation, percent [2]: (53.3%); Adverse events: Diarrhoea NOS, number [2]: 0; Adverse events: Diarrhoea NOS, percent [2]: (0%); Adverse events: Nasopharyngitis, number [2]: 0; Adverse events: Nasopharyngitis, percent [2]: (0%); Adverse events: Nausea, number [2]: 0; Adverse events: Nausea, percent [2]: (0%); Adverse events: Upper respiratory tract infection, number [2]: 1; Adverse events: Upper respiratory tract infection, percent [2]: (6.7%)
His (Ac)-Ser-Asp-Ala-Val-Phe-Thr-Asp-Asn-Tyr-Thr-Arg-Leu-Arg-Lys-Gln-Met (O)-Ala-Val-Lys-Lys-Tyr-Leu-Asn-Ser-Ile-Leu-Asn [Pep - 15] | 16 µmol | better | Higher increase | 26.45 pmol/mL | 13.30 pmol/mL | 27.00 pmol/mL | 16.30 pmol/mL | 36.67 pmol/mL | 23.30 pmol/mL | 
His (Ac)-Ser-Asp-Ala-Val-Phe-Thr-Asp-Asn-Tyr-Thr-Arg-Leu-Arg-Lys-Gln-Met-Ala-Val-Lys-Lys-Tyr-Leu-Asn-Ser-Val-Leu-Asn ({Ac-H2N}-SDAVFTDNYTRLRKQMAVKKYLNSVLN; not fully specified (residue 16); printed as His (Ac)-Ser-Asp-Ala-Val-Phe-Thr-Asp-Asn-Tyr-Thr-Arg-Leu-Arg-Lys-Gln-Met-Ala-Val-Lys-Lys-Tyr-Leu-Asn-Ser-Val-Leu-Asn) [Pep - 18] | 19 µmol | better | Higher increase | 36.66 pmol/mL | 14.83 pmol/mL | 37.00 pmol/mL | 19.45 pmol/mL | 46.42 pmol/mL | 28.43 pmol/mL | 
